Experimental data reported in article PMC8119466, “A screen of FDA-approved drugs identifies inhibitors of protein tyrosine phosphatase 4A3 (PTP4A3 or PRL-3)” (Scientific Reports, 2021).
Where a name gives a salt, the structure may show the parent alone. Read-outs that look alike come from different tables or passages of the source.

Assays:
Format in all cases: biochemical
[1] = molecular target: T1, recombinant PRL-3 (Homo sapiens, UniProt O75365); test: In vitro phosphatase assay (DiFMUP hydrolysis), PRL-3; also: test concentration or dose not given here
T1 construct: 6xHis (N, cleaved yes); made in house; host or cells: E. coli One Shot BL21 Star
T1 sequence (O75365 whole entry): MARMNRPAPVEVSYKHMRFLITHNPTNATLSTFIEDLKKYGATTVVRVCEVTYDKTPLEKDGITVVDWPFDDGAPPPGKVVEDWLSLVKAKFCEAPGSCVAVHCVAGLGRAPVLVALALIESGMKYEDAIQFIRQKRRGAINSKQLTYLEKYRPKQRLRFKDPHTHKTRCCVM

[2] = molecular target: T2, recombinant PRL-1 (Homo sapiens, UniProt Q93096); test: In vitro phosphatase assay (DiFMUP hydrolysis), PRL-1; also: test concentration or dose not given here
T2 construct: 6xHis (N, cleaved yes); made in house; host or cells: E. coli One Shot BL21 Star
T2 sequence (Q93096 1-173): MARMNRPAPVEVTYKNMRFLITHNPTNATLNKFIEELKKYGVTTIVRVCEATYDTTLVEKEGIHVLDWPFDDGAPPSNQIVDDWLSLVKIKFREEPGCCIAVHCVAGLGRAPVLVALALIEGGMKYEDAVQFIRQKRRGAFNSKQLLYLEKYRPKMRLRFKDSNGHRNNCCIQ

[3] = molecular target: T3, recombinant PRL-2 (Homo sapiens, UniProt Q12974); test: In vitro phosphatase assay (DiFMUP hydrolysis), PRL-2;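 also: PRL-2 activity read as DiFMUP hydrolysis after 20 min at room temperature with drug, enzyme first pre-reduced at 4 °C for 20 min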
T3 construct: 6xHis (N, cleaved yes); made in house; host or cells: E. coli One Shot BL21 Star
T3 sequence (Q12974 1-167): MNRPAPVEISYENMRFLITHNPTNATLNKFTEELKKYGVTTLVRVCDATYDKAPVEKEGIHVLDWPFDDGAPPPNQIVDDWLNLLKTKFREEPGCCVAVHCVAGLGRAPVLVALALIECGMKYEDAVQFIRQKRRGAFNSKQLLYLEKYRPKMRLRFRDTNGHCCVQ

[4] = FDA-approved drug screen, compared to DMSO

SMILES	% Phosphatase Activity (compared to DMSO) PRL-3 [1, 4] [%]	% Phosphatase Activity (compared to DMSO) PRL-1 [2, 4] [%]	% Phosphatase Activity (compared to DMSO) PRL-2 [3, 4] [%]	% Phosphatase Activity (compared to DMSO) PRL-3 [1] [%]	% Phosphatase Activity (compared to DMSO) PRL-1 [2] [%]	% Phosphatase Activity (compared to DMSO) PRL-2 [3] [%]
CC1(C)O[C@@H]2C[C@H]3[C@@H]4CCC5=CC(=O)C=C[C@]5(C)[C@H]4[C@@H](O)C[C@]3(C)[C@]2(C(=O)CO)O1 [Desonide]	84	98	97			
CN(C)CC(c1ccc(O)cc1)C1(O)CCCCC1 (stereo not drawn) [Desvenlafaxine Succinate]	80	106	103			
CN(C)CC(c1ccc(O)cc1)C1(O)CCCCC1 (stereo not drawn) [Desvenlafaxine]	70	95	105			
Cc1cccc(Cc2c[nH]cn2)c1C [Detomidine HCl]	81	88	107			
C[C@@H]1C[C@H]2[C@@H]3CCC4=CC(=O)C=C[C@]4(C)[C@@]3(F)[C@@H](O)C[C@]2(C)[C@@]1(O)C(=O)CO [Dexamethasone (DHAP)]	66	99	94			
CC(=O)OCC(=O)[C@@]1(O)[C@H](C)C[C@H]2[C@@H]3CCC4=CC(=O)C=C[C@]4(C)[C@@]3(F)[C@@H](O)C[C@@]21C [Dexamethasone Acetate]	86	90	93			
Cc1c(OCC(F)(F)F)ccnc1C[S@@+]([O-])c1nc2ccccc2[nH]1 [Dexlansoprazole]	93	95	100			
Cc1cccc([C@H](C)c2c[nH]cn2)c1C.Cl [Dexmedetomidine HCl (Precedex)]				90	111	120
Cc1cccc([C@H](C)c2cnc[nH]2)c1C [Dexmedetomidine]				94	98	113
C[C@@H](CN1CC(=O)NC(=O)C1)N1CC(=O)NC(=O)C1.Cl [Dexrazoxane HCl (ICRF-187, ADR-529)]	79	97	92			
Br.COc1ccc2c(c1)[C@]13CCCC[C@@H]1[C@H](C2)N(C)CC3.O [Dextromethorphan (hydrobromide hydrate)]	92	104	118			
OC[C@H]1OC(O)[C@H](O)[C@@H](O)[C@@H]1O (stereo partly drawn) [Dextrose]	79	106	113			
CC(=O)Oc1cccc2c1C(=O)c1c(OC(C)=O)cc(C(=O)O)cc1C2=O [Diacerein]	31	32	51			
CC1=NS(=O)(=O)c2cc(Cl)ccc2N1 [Diazoxide]	89	99	94			
CCCCOc1cc(C(=O)NCCN(CC)CC)c2ccccc2n1 [Dibucaine HCl]	101	110	108			
N#CC(c1ccc(Cl)cc1)c1c(Cl)cc(-n2ncc(=O)[nH]c2=O)cc1Cl (stereo not drawn) [Diclazuril]	80	79	112			
O=C(O)Cc1ccccc1Nc1c(Cl)cccc1Cl [Diclofenac Diethylamine]	97	119	140			
O=C([O-])Cc1ccccc1Nc1c(Cl)cccc1Cl.[K+] [Diclofenac Potassium]	99	115	132			
O=C(O)Cc1ccccc1Nc1c(Cl)cccc1Cl [Diclofenac Sodium]	92	100	115			
Cc1onc(-c2c(Cl)cccc2Cl)c1C(=O)N[C@@H]1C(=O)N2[C@@H]1SC(C)(C)[C@@H]2C(=O)O [Dicloxacillin Sodium]	85	106	121			

SMILES	% Phosphatase Activity (compared to DMSO) PRL-3 [1, 4] [%]	% Phosphatase Activity (compared to DMSO) PRL-1 [2, 4] [%]	% Phosphatase Activity (compared to DMSO) PRL-2 [3, 4] [%]	% Phosphatase Activity (compared to DMSO) PRL-3 [1] [%]	% Phosphatase Activity (compared to DMSO) PRL-1 [2] [%]	% Phosphatase Activity (compared to DMSO) PRL-2 [3] [%]
O=c1[nH]cnc2c1ncn2[C@H]1CC[C@@H](CO)O1 [Didanosine]	85	95	114			
C[C@]12CCC3=C4CCC(=O)C=C4CC[C@H]3[C@@H]1CC[C@@]2(O)CC#N [Dienogest]	72	100	78			
CCN(CC)C(=O)N1CCN(C)CC1.O=C(O)CC(O)(CC(=O)O)C(=O)O [Diethylcarbamazine (citrate)]	90	92	101			
CC/C(=C(/CC)c1ccc(O)cc1)c1ccc(O)cc1 [Diethylstilbestrol]	92	86	97			
CN1CCN(c2cc3c(cc2F)c(=O)c(C(=O)O)cn3-c2ccc(F)cc2)CC1 [Difloxacin HCl]	114	99	102			
O=C(O)c1cc(-c2ccc(F)cc2F)ccc1O [Diflunisal]	85	91	87			
CCCC(=O)O[C@]1(C(=O)COC(C)=O)CC[C@H]2[C@@H]3C[C@H](F)C4=CC(=O)C=C[C@]4(C)[C@@]3(F)[C@@H](O)C[C@@]21C [Difluprednate]	67	82	76			
C[C@H]1O[C@@H](O[C@H]2[C@@H](O)C[C@H](O[C@H]3[C@@H](O)C[C@H](O[C@H]4CC[C@@]5(C)[C@H](CC[C@@H]6[C@@H]5C[C@@H](O)[C@]5(C)[C@@H](C7=CC(=O)OC7)CC[C@]65O)C4)O[C@@H]3C)O[C@@H]2C)C[C@H](O)[C@@H]1O [Digoxin]	76	102	95			
CN[C@@H]1[C@H](O[C@H]2[C@H](O[C@H]3[C@H](O)[C@@H](O)[C@H](NC(=N)N)[C@@H](O)[C@@H]3NC(=N)N)O[C@@H](C)[C@]2(O)CO)O[C@@H](CO)[C@H](O)[C@H]1O [Dihydrostreptomycin sulfate]	110	89	90			
Oc1c(I)cc(I)c2cccnc12 [Diiodohydroxyquinoline]	81	89	108			
COc1ccc([C@@H]2Sc3ccccc3N(CCN(C)C)C(=O)[C@@H]2OC(C)=O)cc1 [Diltiazem HCl]	124	94	111			
O=S(=O)([O-])CCSSCCS(=O)(=O)[O-].[Na+].[Na+] [Dimesna]	79	99	99			
COC(=O)/C=C/C(=O)OC [Dimethyl Fumarate]	83	106	115			
CCc1cnn2c(NCc3ccc[n+]([O-])c3)cc(N3CCCC[C@H]3CCO)nc12 [Dinaciclib (SCH727965)]				87	87	89
Cc1c(C(N)=O)cc([N+](=O)[O-])cc1[N+](=O)[O-] [Dinitolmide]	90	107	117			
O=C(Nc1ccccc1)OCC(CN1CCCCC1)OC(=O)Nc1ccccc1 (stereo not drawn) [Diperodon HCl]	103	99	98			
CN(C)CCOC(c1ccccc1)c1ccccc1 [Diphenhydramine HCl]	111	113	108			
OC(CCCN1CCCCC1)(c1ccccc1)c1ccccc1 [Diphenidol HCl]	89	102	115			
CN1CCC(OC(c2ccccc2)c2ccccc2)CC1 [Diphenylpyraline HCl]	98	97	100			
